Measurements published in patent US20030203975A1, “Anti-cancer agents” (priority 1998, published 2003).

How the values were obtained:
Topoisomerase IIβ = Topoisomerase IIβ (Homo sapiens, UniProt Q02880); assay: Topo II relaxation assay; assay type: biochemical; design: key: ‘—’ = Not active; settings: unit not given; compound at 1, 10, 25 and 50 μM in protocol
Method: (§1) Topo II Relaxation Assay Protocol
(§2) 10×Topo II Relaxation Buffer
(§3) 500 mM Tris-HCl (pH 7.5); 100 mM mgCI2; 50 mM EDTA; 300 mg/mI BSA; 10 mM DTT; −20° C.

Topoisomerase IIα = Topoisomerase IIα (Homo sapiens, UniProt P11388); assay: Topo II relaxation assay; assay type: biochemical; design: key: ‘—’ = Not active; settings: unit not given; compound at 1, 10, 25 and 50 μM in protocol
Method: as §1, §2, §3

[1] = In vitro cytotoxicity against CHO cell lines (MTT assay); assay type: cell-based; settings: Chinese hamster, MTT assay after 24 hours exposure
Method: Chinese Hamster Ovary (CHO) cell lines were grown as monolayers in Ham's F-10 nutrient mixture supplemented with 5% foetal calf serum and 5% heat-inactivated newborn calf serum. All experiments were performed on cells within 10 passages of each other, during which period phenotypes remained stable. All anthraquinone/amino acid conjugates were dissolved in water and not more than 0.01% DMSO. Activity was determined by an MTT assay after 24 hours exposure using essentially the method of Plumb et al (Plumb, J., Milroy, R and Kaye, S. B., 1989, Effects of the pH dependence of 3-([…])-2,5-diphenyl tetrazolium bromide formazan absorption on chemosensitivity, Cancer Research, 49: 4435-4440). Characteristics of the cell lines are described in full in Cummings et al 1996, Biochem.Pharmacol. 52: 979-990.

[2] = system: MAC 15A adenocarcinoma of the colon; assay: In vitro chemosensitivity against MAC 15A adenocarcinoma (MTT assay); assay type: cell-based; settings: Mus musculus, MAC15A, 96 hours continuous exposure

Topoisomerase IIα, sequence (P11388 whole entry): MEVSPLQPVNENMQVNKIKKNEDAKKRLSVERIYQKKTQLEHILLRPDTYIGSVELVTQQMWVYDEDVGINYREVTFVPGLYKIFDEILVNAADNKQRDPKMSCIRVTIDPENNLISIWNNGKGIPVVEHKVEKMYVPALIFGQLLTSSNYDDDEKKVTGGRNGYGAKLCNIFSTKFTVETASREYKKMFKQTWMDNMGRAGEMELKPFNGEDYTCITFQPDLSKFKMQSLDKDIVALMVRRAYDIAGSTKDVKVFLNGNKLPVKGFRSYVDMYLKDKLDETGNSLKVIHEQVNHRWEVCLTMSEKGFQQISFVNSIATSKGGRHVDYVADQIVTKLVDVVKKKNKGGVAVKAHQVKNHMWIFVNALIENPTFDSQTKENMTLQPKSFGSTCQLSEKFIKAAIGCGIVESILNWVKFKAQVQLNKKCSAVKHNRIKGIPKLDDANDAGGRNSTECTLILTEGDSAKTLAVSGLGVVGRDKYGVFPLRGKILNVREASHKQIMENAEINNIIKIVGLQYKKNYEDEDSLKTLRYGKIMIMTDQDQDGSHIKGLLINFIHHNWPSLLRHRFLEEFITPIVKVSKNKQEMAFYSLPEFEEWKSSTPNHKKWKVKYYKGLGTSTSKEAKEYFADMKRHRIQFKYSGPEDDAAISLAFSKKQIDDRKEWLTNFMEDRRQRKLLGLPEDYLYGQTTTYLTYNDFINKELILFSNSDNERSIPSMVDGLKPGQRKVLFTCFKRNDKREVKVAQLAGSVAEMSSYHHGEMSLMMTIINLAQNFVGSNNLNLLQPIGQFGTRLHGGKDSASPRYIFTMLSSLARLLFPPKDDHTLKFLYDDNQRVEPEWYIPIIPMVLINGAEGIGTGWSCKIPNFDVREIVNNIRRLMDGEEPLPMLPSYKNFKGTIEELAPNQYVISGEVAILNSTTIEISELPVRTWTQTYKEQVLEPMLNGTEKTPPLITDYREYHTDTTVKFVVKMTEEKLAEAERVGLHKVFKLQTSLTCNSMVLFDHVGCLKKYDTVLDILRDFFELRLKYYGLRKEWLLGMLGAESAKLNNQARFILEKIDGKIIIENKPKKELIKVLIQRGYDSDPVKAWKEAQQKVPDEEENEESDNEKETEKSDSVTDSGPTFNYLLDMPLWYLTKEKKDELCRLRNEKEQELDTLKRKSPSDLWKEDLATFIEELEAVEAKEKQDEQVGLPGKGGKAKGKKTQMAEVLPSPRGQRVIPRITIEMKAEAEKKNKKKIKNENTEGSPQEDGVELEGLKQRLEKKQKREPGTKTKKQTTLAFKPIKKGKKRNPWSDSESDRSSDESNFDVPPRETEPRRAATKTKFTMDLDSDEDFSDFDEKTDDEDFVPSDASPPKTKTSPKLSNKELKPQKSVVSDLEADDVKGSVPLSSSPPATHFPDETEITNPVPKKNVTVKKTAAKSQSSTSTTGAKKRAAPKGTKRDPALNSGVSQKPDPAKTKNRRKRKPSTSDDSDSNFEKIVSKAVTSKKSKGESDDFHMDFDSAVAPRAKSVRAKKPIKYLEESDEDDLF
Topoisomerase IIβ, sequence (Q02880 whole entry): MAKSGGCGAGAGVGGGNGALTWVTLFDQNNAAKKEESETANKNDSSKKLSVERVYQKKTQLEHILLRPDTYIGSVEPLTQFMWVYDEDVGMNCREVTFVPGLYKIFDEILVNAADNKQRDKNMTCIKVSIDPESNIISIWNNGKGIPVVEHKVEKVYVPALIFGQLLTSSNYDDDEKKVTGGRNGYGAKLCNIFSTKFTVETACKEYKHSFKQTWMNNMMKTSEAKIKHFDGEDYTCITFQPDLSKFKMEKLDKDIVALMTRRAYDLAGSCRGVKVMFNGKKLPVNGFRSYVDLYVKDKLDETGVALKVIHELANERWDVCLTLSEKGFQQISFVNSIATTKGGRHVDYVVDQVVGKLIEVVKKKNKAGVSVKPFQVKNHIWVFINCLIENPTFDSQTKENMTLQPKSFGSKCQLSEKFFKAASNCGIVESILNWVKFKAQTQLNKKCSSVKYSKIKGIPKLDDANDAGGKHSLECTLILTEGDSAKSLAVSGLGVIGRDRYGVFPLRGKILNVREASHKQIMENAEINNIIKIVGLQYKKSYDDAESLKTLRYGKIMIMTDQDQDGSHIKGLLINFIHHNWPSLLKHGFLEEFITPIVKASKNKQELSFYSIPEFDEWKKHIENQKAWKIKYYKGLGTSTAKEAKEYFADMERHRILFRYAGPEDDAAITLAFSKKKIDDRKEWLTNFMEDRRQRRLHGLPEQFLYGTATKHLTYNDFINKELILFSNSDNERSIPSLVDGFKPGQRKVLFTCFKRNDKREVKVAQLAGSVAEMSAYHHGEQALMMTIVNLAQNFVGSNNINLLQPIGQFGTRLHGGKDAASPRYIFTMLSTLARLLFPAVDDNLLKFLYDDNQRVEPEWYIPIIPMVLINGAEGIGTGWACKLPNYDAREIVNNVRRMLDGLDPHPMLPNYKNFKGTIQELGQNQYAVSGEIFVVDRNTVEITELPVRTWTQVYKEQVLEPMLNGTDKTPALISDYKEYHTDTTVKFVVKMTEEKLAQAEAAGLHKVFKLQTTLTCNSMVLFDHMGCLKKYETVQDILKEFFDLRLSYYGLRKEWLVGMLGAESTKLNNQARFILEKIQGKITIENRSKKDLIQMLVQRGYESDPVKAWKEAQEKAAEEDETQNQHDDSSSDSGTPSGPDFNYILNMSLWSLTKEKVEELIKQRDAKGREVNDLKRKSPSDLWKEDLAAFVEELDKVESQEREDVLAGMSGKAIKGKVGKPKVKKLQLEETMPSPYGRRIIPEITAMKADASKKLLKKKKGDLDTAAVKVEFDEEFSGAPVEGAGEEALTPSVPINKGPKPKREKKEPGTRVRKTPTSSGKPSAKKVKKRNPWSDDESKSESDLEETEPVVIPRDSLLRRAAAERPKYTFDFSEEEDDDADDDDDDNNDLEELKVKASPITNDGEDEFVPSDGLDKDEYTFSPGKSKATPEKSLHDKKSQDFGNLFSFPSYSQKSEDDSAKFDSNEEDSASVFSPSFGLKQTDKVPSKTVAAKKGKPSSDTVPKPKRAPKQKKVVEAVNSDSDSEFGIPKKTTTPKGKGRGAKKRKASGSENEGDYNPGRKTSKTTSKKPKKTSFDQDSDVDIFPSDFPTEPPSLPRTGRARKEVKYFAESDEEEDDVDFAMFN

| SMILES | TopIIβ Relax. (Topoisomerase IIβ) | TopIIα Relax. (Topoisomerase IIα) | IC50 at 24 h ([1]; CHO-ADR-1 cells, ADR line) | IC50 at 24 h ([1]; CHO-ADR-r cells, ADR line) | IC50 at 24 h ([1]; CHO-K1 cells) | IC50 [2] |
| --- | --- | --- | --- | --- | --- | --- |
| C[C@H](N)C(=O)OCCCCNc1cccc2c1C(=O)c1ccccc1C2=O.O=C(O)C(F)(F)F [Example 43, 1-[4-(L-alanyloxy)butylamino]anthracene-9,10-dione trifluoroacetate] | 15 | — | 6.6 µM | 25.2 µM | 54 µM | 2.6 µM |
| C[C@@H](N)C(=O)OCCCCNc1cccc2c1C(=O)c1ccccc1C2=O.O=C(O)C(F)(F)F [Example 45, 1-[4-(D-alanyloxy)butylamino]anthracene-9,10-dione trifluoroacetate] | 25 | — | 46.3 µM | 31.5 µM | 40.5 µM | 2.9 µM |
